Test results: ChEMBL document CHEMBL1201862, “PubChem BioAssay data set” (2004)
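How tested: cells in 96-well plates exposed to compound for 48 hours at five concentrations. At the GI50, growth is halved.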 The source made the active and inactive calls. Cut-off read from the data, not from the text of the source: active = GI50 up to about 1.1 µM and inactive = higher.

Tests used:
Experiment in all cases: growth of human tumour cells (NCI), 48 h
UO-31 = tested on: UO-31
HL-60 = tested on: HL-60
SNB-19 = tested on: SNB-19
OVCAR-3 = tested on: OVCAR-3
COLO 205 = tested on: COLO 205
A549 = tested on: A549
SN12C = tested on: SN12C
NCI-H460 = tested on: NCI-H460
HCC 2998 = tested on: HCC 2998
RXF 393 = tested on: RXF 393
SK-MEL-5 = tested on: SK-MEL-5
SNB-75 = tested on: SNB-75
OVCAR-5 = tested on: OVCAR-5
SF-268 = tested on: SF-268
MOLT-4 = tested on: MOLT-4
SK-MEL-2 = tested on: SK-MEL-2
NCI-H23 = tested on: NCI-H23
NCI-H226 = tested on: NCI-H226
SF-295 = tested on: SF-295
OVCAR-8 = tested on: OVCAR-8

Measured: GI50

COc1ccc(-c2c(-c3ccccc3)c(C)nc3nc(SC)nc(SC)c23)cc1OC
inactive: UO-31 3.79 µM | HL-60 3.14 µM | SNB-19 26.7 µM | OVCAR-3 14.4 µM | COLO 205 11.6 µM | A549 1.4 µM | SN12C 7.4 µM | NCI-H460 2.12 µM | HCC 2998 25 µM | RXF 393 17.1 µM | SK-MEL-5 4.76 µM | SNB-75 16.1 µM | OVCAR-5 12.4 µM | SF-268 24 µM | MOLT-4 5.81 µM | SK-MEL-2 17.1 µM | NCI-H23 28.8 µM | NCI-H226 17.3 µM | SF-295 7.55 µM

CC1(O)CCC2(C#N)CCC1C2O (configuration not stated)
inactive: UO-31 > 100 µM | HL-60 > 100 µM | SNB-19 > 100 µM | OVCAR-3 > 100 µM | COLO 205 33.9 µM | A549 > 100 µM | SN12C > 100 µM | NCI-H460 43.9 µM | HCC 2998 > 100 µM | RXF 393 > 100 µM | SK-MEL-5 > 100 µM | SNB-75 > 100 µM | OVCAR-8 > 100 µM | OVCAR-5 > 100 µM | SF-268 > 100 µM | MOLT-4 > 100 µM | SK-MEL-2 > 100 µM | NCI-H226 > 100 µM | SF-295 > 100 µM

C=C(Nc1ccc([N+](=O)[O-])cc1[N+](=O)[O-])c1c/c(=N\NC(N)=S)c2ccccc2o1
inactive: UO-31 29.1 µM | HL-60 32.8 µM | SNB-19 53 µM | OVCAR-3 22.7 µM | COLO 205 33.5 µM | A549 > 100 µM | SN12C 47.6 µM | NCI-H460 > 100 µM | HCC 2998 95.9 µM | RXF 393 60.3 µM | SK-MEL-5 37.7 µM | SNB-75 74.8 µM | OVCAR-8 41.7 µM | OVCAR-5 56.9 µM | SF-268 > 100 µM | MOLT-4 42.4 µM | SK-MEL-2 > 100 µM | NCI-H23 81.8 µM | NCI-H226 28.2 µM | SF-295 39.5 µM

COc1cc(-c2ccc(/N=N/c3c(S(=O)(=O)O)cc4cc(S(=O)(=O)O)cc(N)c4c3O)c(OC)c2)ccc1/N=N/c1c(S(=O)(=O)O)cc2cc(S(=O)(=O)O)cc(N)c2c1O
inactive: UO-31 > 80.4 µM | HL-60 29.9 µM | SNB-19 > 100 µM | OVCAR-3 > 62.8 µM | COLO 205 > 100 µM | A549 > 77.4 µM | SN12C > 100 µM | NCI-H460 > 100 µM | HCC 2998 > 100 µM | RXF 393 > 100 µM | SK-MEL-5 > 100 µM | SNB-75 37.4 µM | OVCAR-8 > 100 µM | OVCAR-5 > 100 µM | SF-268 > 100 µM | MOLT-4 > 82.6 µM | SK-MEL-2 > 100 µM | NCI-H23 > 100 µM | NCI-H226 > 62.1 µM | SF-295 > 100 µM

CN1CC(c2ccccc2)N(CCCCN2CC(c3ccccc3)N(C)CC2c2ccccc2)CC1c1ccccc1 (configuration not stated)
inactive: UO-31 57.9 µM | HL-60 29.3 µM | SNB-19 54.7 µM | OVCAR-3 53.3 µM | COLO 205 28.8 µM | A549 33.4 µM | SN12C 46.5 µM | NCI-H460 18.1 µM | HCC 2998 24.4 µM | RXF 393 21.9 µM | SK-MEL-5 31.7 µM | SNB-75 29.4 µM | OVCAR-8 44.3 µM | OVCAR-5 > 100 µM | SF-268 > 100 µM | MOLT-4 23.2 µM | SK-MEL-2 30.9 µM | NCI-H226 95.7 µM | SF-295 34.8 µM

COc1ccc2cc(CNCCCCCCCCCCCCNCc3ccc4cc(OC)ccc4c3)ccc2c1
inactive: UO-31 20.9 µM | HL-60 10.4 µM | SNB-19 17.5 µM | OVCAR-3 21.2 µM | COLO 205 16.4 µM | A549 24.3 µM | SN12C 19.7 µM | NCI-H460 17.3 µM | HCC 2998 13.5 µM | RXF 393 14.8 µM | SK-MEL-5 22.6 µM | SNB-75 13.9 µM | OVCAR-8 15 µM | OVCAR-5 28.4 µM | SF-268 8.04 µM | MOLT-4 21.5 µM | SK-MEL-2 22.5 µM | NCI-H23 20 µM | NCI-H226 18.5 µM | SF-295 19.5 µM

O=S(=O)(N/C(=N\O)Nc1ccc(Cl)cc1)c1ccccc1
inactive: UO-31 3.23 µM | HL-60 4.99 µM | SNB-19 22.8 µM | OVCAR-3 1.23 µM | COLO 205 20.4 µM | A549 21.2 µM | SN12C 11.7 µM | NCI-H460 13.4 µM | HCC 2998 7.1 µM | RXF 393 2.77 µM | SK-MEL-5 9.04 µM | SNB-75 1.71 µM | OVCAR-8 10.2 µM | OVCAR-5 14.5 µM | SF-268 10.8 µM | MOLT-4 3.23 µM | SK-MEL-2 11.6 µM | NCI-H23 16.2 µM | NCI-H226 33.7 µM | SF-295 36.6 µM
